{"source": "patent US11371055B2", "about": "“Herbicide resistance genes” (CORTEVA AGRISCIENCE LLC, priority 2005, dated 2022)", "key": {"T1 AAD-12 (v1) canola": {"test_system": "T1 AAD-12 (v1) canola", "assay": "2,4-D DMA tolerance in T1 canola", "assay_type": "in vivo, Brassica napus", "experimental": "For T1 AAD-12 (v1), 5-6 mg of seed were stratified, sown, and a fine layer of Sunshine Mix #5 media was added as a top layer of soil. Emerging plants were selected with 560 g ae/ha 2,4-D at 7 and 13 days after planting.\nSurviving plants were transplanted into 3-inch pots containing Metro Mix media. Surviving plants from T1 progenies, that were selected with 560 g ae/ha 2,4-D, were also transplanted into 3-inch pots filled with Metro Mix soil. At 2-4 leaf stage plants were sprayed with either 280, 560, 1120, or 2240 g ae/ha 2,4-D DMA. Plants were graded at 3 and 14 DAT and compared to untransformed control plants. A sampling of T1 event injury data 14DAT may be seen in Table 30."}, "[1]": {"test_system": "Untransformed control corn (5XH751×Hi II)", "assay": "Brace root injury of untransformed control corn after 2,4-D DMA", "assay_type": "in vivo, Zea mays", "settings": "2240 g ae/ha 2,4-D DMA, V3-V4 stage, 14DAT", "text": "T1 AAD-12 (v1) seed were planted into 3-inch pots containing Metro Mix media and at 2 leaf stage were sprayed with 70 g ae/ha imazethapyr to eliminate nulls. Surviving plants were transplanted to 1-gallon pots containing Metro Mix media and placed in the same growth conditions as before. At V3-V4 stage the plants were sprayed in the track sprayer set to 187 L/ha at either 560 or 2240 g ac/ha 2,4-D DMA. Plants were graded at 3 and 14 DAT and compared to 5XH751×Hi II control plants. A grading scale of 0-10 (no injury to extreme auxin injury) was developed to distinguish brace root injury. Brace Root grades were taken on 14DAT to show 2,4-D tolerance. 2,4-D causes brace root malformation, and is a consistent indicator of auxinic herbicide injury in corn. […] Event “pDAB4101(0)001.001” was apparently unstable; however, the other two events were robustly tolerant to 2,4-D and 2,4-D+imazethapyr or 2,-4D+glyphosate (see Table 16)."}, "[2]": {"test_system": "R-dichlorprop habituated PHL (Petite Havana) tobacco cells", "assay": "2,4-D dose response of tobacco cell suspension (PHL)", "assay_type": "cell-based", "experimental": "(§1) A dose response study was conducted with both the R-dichlorprop habituated PHL cells and the R-dichlorprop habituated BY2 cells where R-dichlorprop was substituted directly for 2,4-D in culture media. Though the focus was on PHL, a dose response was also done with BY2 in case of possible future studies, as well as to help predict the dose response for PHL. For the dichlorprop habituated PHL dose response, the levels of 2,4-D used (on LSBY2C medium with R-dichlorprop) were 0 (the control), 1, 2, 3, 5, 8, 10, 12, 15, 18, 20, 40, 60, 80, […] mg/L 2,4-D. There were four replications per concentration. For the R-dichlorprop habituated BY2 dose response, the levels of 2,4-D used (on LSBY2C medium) were 0 (the control), 1, 2, 3, 5, 8, 10, 20, 30, 40, mg/L 2,4-D."}, "[3]": {"test_system": "R-dichlorprop habituated BY2 tobacco cells", "assay": "2,4-D dose response of tobacco cell suspension (BY2)", "assay_type": "cell-based", "settings": "LSBY2C medium", "experimental": "as §1"}, "[4]": {"test_system": "wildtype Maverick soybeans", "assay": "2,4-D leaf paint (leaf flip assay) on wildtype soybean", "assay_type": "in vivo, Glycine max", "parameters": "key to Leaf flip assay (18 HAT) Node N-2: 1 = Flip; 0 = No Flip", "text": "Plants that are transferred to the greenhouse can be assayed for the presence of an active PAT gene further with a non-destructive manner by painting a section of leaf of the T0 primary transformant, or progeny thereof, with a glufosinate solution [0.05-2% v/v Liberty Herbicide, preferably 0.25-1.0% (v/v),=500-2000 ppm glufosinate, Bayer Crop Science]. Depending on the concentration used, assessment for glufosinate injury can be made 1-7 days after treatment. Plants can also be tested for 2,4-D tolerance in a non-destructive manner by selective application of a 2,4-D solution in water (0.25-1% v/v commercial 2,4-D dimethylamine salt formulation, preferably 0.5% v/v=2280 ppm 2,4-D ae) to the terminal leaflet of the newly expanding trifoliolate one or two, preferably two, nodes below the youngest emerging trifolioate. […] Glyphosate resistance (in plants transformed with constructs that contain EPSPS) or another glyphosate tolerance gene can be assessed in the T1 generation by postemergence applications of glyphosate with a dose range from 280-2240 g ae/ha glyphosate. […] Individual T0 plants were assessed for the presence of the coding region of the gene of interest (AAD-12 (v1) or PAT v6) and copy number. […]\nA subset of the initial transformants were assessed in the T0 generation according to the methods above. […]"}, "[5]": {"settings": "LSBY2C medium with R-dichlorprop"}}, "data": [{"smiles": "CNC.O=C(O)COc1ccc(Cl)cc1Cl", "note": "[2,4-D DMA]", "values": [{"measurement": "Average % injury 14 DAT", "setting": "T1 AAD-12 (v1) canola; T1 pDAB3759(18)009.001, 280 g ae/ha", "result": 0, "unit": "%"}, {"measurement": "Average % injury 14 DAT", "setting": "T1 AAD-12 (v1) canola; T1 pDAB3759(18)009.001, 560 g ae/ha", "result": 0, "unit": "%"}, {"measurement": "Average % injury 14 DAT", "setting": "T1 AAD-12 (v1) canola; T1 pDAB3759(18)009.001, 1120 g ae/ha", "result": 0, "unit": "%"}, {"measurement": "Average % injury 14 DAT", "setting": "T1 AAD-12 (v1) canola; T1 pDAB3759(18)009.001, 2240 g ae/ha", "result": 5, "unit": "%"}, {"measurement": "Average % injury 14 DAT", "setting": "T1 AAD-12 (v1) canola; T1 pDAB3759(18)022.001, 280 g ae/ha", "result": 0, "unit": "%"}, {"measurement": "Average % injury 14 DAT", "setting": "T1 AAD-12 (v1) canola; T1 pDAB3759(18)022.001, 560 g ae/ha", "result": 0, "unit": "%"}, {"measurement": "Average % injury 14 DAT", "setting": "T1 AAD-12 (v1) canola; T1 pDAB3759(18)022.001, 1120 g ae/ha", "result": 13, "unit": "%"}, {"measurement": "Average % injury 14 DAT", "setting": "T1 AAD-12 (v1) canola; T1 pDAB3759(18)022.001, 2240 g ae/ha", "result": 83, "unit": "%"}, {"measurement": "Average % injury 14 DAT", "setting": "T1 AAD-12 (v1) canola; T1 pDAB3759(18)023.001, 280 g ae/ha", "result": 0, "unit": "%"}, {"measurement": "Average % injury 14 DAT", "setting": "T1 AAD-12 (v1) canola; T1 pDAB3759(18)023.001, 560 g ae/ha", "result": 0, "unit": "%"}, {"measurement": "Average % injury 14 DAT", "setting": "T1 AAD-12 (v1) canola; T1 pDAB3759(18)023.001, 1120 g ae/ha", "result": 3, "unit": "%"}, {"measurement": "Average % injury 14 DAT", "setting": "T1 AAD-12 (v1) canola; T1 pDAB3759(18)023.001, 2240 g ae/ha", "result": 6, "unit": "%"}, {"measurement": "Average % injury 14 DAT", "setting": "T1 AAD-12 (v1) canola; T1 pDAB3759(18)030.001, 280 g ae/ha", "result": 0, "unit": "%"}, {"measurement": "Average % injury 14 DAT", "setting": "T1 AAD-12 (v1) canola; T1 pDAB3759(18)030.001, 560 g ae/ha", "result": 0, "unit": "%"}, {"measurement": "Average % injury 14 DAT", "setting": "T1 AAD-12 (v1) canola; T1 pDAB3759(18)030.001, 1120 g ae/ha", "result": 5, "unit": "%"}, {"measurement": "Average % injury 14 DAT", "setting": "T1 AAD-12 (v1) canola; T1 pDAB3759(18)030.001, 2240 g ae/ha", "result": 31, "unit": "%"}, {"measurement": "Average % injury 14 DAT", "setting": "T1 AAD-12 (v1) canola; T1 pDAB3759(33)013.001, 280 g ae/ha", "result": 0, "unit": "%"}, {"measurement": "Average % injury 14 DAT", "setting": "T1 AAD-12 (v1) canola; T1 pDAB3759(33)013.001, 560 g ae/ha", "result": 0, "unit": "%"}, {"measurement": "Average % injury 14 DAT", "setting": "T1 AAD-12 (v1) canola; T1 pDAB3759(33)013.001, 1120 g ae/ha", "result": 0, "unit": "%"}, {"measurement": "Average % injury 14 DAT", "setting": "T1 AAD-12 (v1) canola; T1 pDAB3759(33)013.001, 2240 g ae/ha", "result": 1, "unit": "%"}, {"measurement": "Average Brace Root Injury (0-10 Scale)", "setting": "[1]", "result": 9}]}, {"smiles": "O=C(O)COc1ccc(Cl)cc1Cl", "note": "[2,4-D, 2,4-dichlorophenoxyacetic acid]", "values": [{"measurement": "growth of PHL suspension", "setting": "[2]; 10-mg/L 2,4-D", "result": "slight growth"}, {"measurement": "2,4-D concentrations with growth comparable to control treatments", "setting": "[2]; [5]", "result": "1 to 8", "unit": "mg/L"}, {"measurement": "lethal concentrations of 2,4-D", "setting": "[2]; [5]", "result": "above 10 mg/L"}, {"measurement": "lethal concentration of 2,4-D", "setting": "[3]", "result": 10, "unit": "mg/L"}, {"measurement": "sub lethal concentration of 2,4-D", "setting": "[3]", "result": 8, "unit": "mg/L"}, {"measurement": "Leaf flip assay (18 HAT) Node N-2", "setting": "[4]; 2,4-D leaf paint, Maverick WT plants (WT-10, WT-2)", "result": 1}, {"measurement": "response to 2,4-D leaf painting", "setting": "[4]; 2,4-D solution applied to terminal leaflet", "result": "did"}]}]}
